The text below walks through data of US8343973B2, “Phenoxymethyl heterocyclic compounds” (EnVivo Pharmaceuticals, Inc., priority 2009, dated 2013).

For orientation: IC50 means the midpoint of a concentration-inhibition curve.

Chain of Human PDE10A1 (Q9Y233 1-779 isoform Q9Y233-1): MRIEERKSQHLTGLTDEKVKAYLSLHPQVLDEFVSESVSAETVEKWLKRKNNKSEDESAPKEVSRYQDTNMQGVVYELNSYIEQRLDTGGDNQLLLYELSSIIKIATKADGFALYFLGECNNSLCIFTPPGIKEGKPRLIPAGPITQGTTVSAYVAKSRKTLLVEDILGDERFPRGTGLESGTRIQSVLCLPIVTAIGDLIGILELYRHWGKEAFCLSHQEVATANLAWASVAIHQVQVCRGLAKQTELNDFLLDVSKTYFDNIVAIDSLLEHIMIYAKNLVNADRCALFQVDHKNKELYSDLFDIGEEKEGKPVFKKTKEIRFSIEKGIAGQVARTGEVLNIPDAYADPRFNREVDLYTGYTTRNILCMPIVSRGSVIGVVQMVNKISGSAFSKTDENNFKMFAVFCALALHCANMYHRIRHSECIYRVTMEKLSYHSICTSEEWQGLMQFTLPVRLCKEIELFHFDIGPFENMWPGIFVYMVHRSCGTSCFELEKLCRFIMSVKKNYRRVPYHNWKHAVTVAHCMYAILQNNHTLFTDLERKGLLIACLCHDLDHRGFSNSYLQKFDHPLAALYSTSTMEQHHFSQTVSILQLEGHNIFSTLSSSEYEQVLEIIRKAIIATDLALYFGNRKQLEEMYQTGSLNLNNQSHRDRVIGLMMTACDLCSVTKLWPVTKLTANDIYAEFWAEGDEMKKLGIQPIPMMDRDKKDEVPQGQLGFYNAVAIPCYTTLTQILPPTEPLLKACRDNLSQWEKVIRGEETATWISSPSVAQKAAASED

One assay has as its target Human PDE10A1 (Homo sapiens, UniProt Q9Y233). Briefly: hPDE10A1 enzyme inhibition ([3H]-cAMP hydrolysis, scintillation). It counts as biochemical. Conditions: Human PDE10A1, [3H]-cAMP substrate; read-out: hPDE10A1 IC50 Band. How it is done:
hPDE10A1 Enzyme Activity: 50 μl samples of serially diluted Human PDE10A1 enzyme were incubated with 50 μl of [^3H]-cAMP for 20 minutes (at 37° C.). Reactions were carried out in Greiner 96 deep well 1 ml master-block. The enzyme was diluted in 20 mM Tris HCl pH7.4 and [^3H]-cAMP was diluted in 10 mM MgCl2, 40 mM Tris.HCl pH 7.4. The reaction was terminated by denaturing the PDE enzyme (at 70° C.) after which [^3H]-5′-AMP was converted to [^3H]-adenosine by adding 25 μl snake venom nucleotidase and incubating for 10 minutes (at 37° C.). Adenosine, being neutral, was separated from charged cAMP or AMP by the addition of 200 μl Dowex resin. Samples were shaken for 20 minutes then centrifuged for 3 minutes at 2,500 r.p.m. 50 μl of supernatant was removed and added to 200 μl of MicroScint-20 in white plates (Greiner 96-well Optiplate) and shaken for 30 minutes before reading on Perkin Elmer TopCount Scintillation Counter.
hPDE10A1 Enzyme Inhibition: To check inhibition profile 11 μl of serially diluted inhibitor was added to 50 μl of [^3H]-cAMP and 50 ul of diluted Human PDE10A1 and assay was carried out as in the enzyme activity assay. Data was analysed using Prism software (GraphPad Inc).
Consider `Cc1ccc(COc2ccc(C3=C(c4ccc(C#N)cc4)OC(C)(C)C3=O)cc2)nc1` [4-(5,5-dimethyl-3-(4-((5-methylpyridin-2-yl)methoxy)phenyl)-4-oxo-4,5-dihydrofuran-2-yl)benzonitrile], for which the IC50 is at most 10 nM.

Regarding `COc1ccc(C2=C(c3ccc(OCc4cn5ncccc5n4)cc3)C(=O)C(C)(C)O2)cc1` [4-(4-(imidazo[1,2-b]pyridazin-2-ylmethoxy)phenyl)-5-(4-methoxyphenyl)-2,2-dimethylfuran-3(2H)-one], the IC50 was at most 10 nM.

`COc1ccc(C2=C(c3ccc(OCc4cn5c(C)cccc5n4)cc3)C(=O)C(C)(C)O2)cc1` [5-(4-Methoxyphenyl)-2,2-dimethyl-4-(4-((5-methylimidazo[1,2-a]pyridin-2-yl)methoxy)phenyl)furan-3(2H)-one]: the IC50 is at most 10 nM.

As for `COc1ccc(C2=C(c3ccc(OCc4cn5nc(Cl)ccc5n4)cc3)C(=O)C(C)(C)O2)cc1` [4-(4-((6-chloroimidazo[1,2-b]pyridazin-2-yl)methoxy)phenyl)-5-(4-methoxyphenyl)-2,2-dimethylfuran-3(2H)-one], the IC50 was 10 to 50 nM.

In the case of `COc1ccc(C2=C(c3ccc(OCc4ccc5nccn5n4)cc3)C(=O)C(C)(C)O2)cc1` [4-(4-(imidazo[1,2-b]pyridazin-6-ylmethoxy)phenyl)-5-(4-methoxyphenyl)-2,2-dimethylfuran-3(2H)-one], the IC50 lay within 10 to 50 nM.

For `COc1ccc(C2=C(c3ccc(OCc4nc5ccccn5c4C)cc3)C(=O)C(C)(C)O2)cc1` [5-(4-Methoxyphenyl)-2,2-dimethyl-4-(4-((3-methylimidazo[1,2-a]pyridin-2-yl)methoxy)phenyl)furan-3(2H)-one], the half-maximal inhibitory concentration (IC50) fell in the range of 10 to 50 nM.

As to `COc1ccc(C2=C(c3ccc(OCc4ncc(C)cc4C)cc3)C(=O)C(C)(C)O2)cc1` [4-(4-((3,5-dimethylpyridin-2-yl)methoxy)phenyl)-5-(4-methoxyphenyl)-2,2-dimethylfuran-3(2H)-one], the IC50 is at most 10 nM.

For the molecule `COc1ccc(C2=C(c3ccc(OCc4nc5ccccn5c4Cl)cc3)C(=O)C(C)(C)O2)cc1` [4-(4-((3-chloroimidazo[1,2-a]pyridin-2-yl)methoxy)phenyl)-5-(4-methoxyphenyl)-2,2-dimethylfuran-3(2H)-one], the IC50 is at most 10 nM.

On to `COc1ccc(C2=C(c3ccc(OCc4cn5ccccc5n4)cc3)C(=O)C(C)(C)O2)cc1` [4-(4-(imidazo[1,2-a]pyridin-2-ylmethoxy)phenyl)-5-(4-methoxyphenyl)-2,2-dimethylfuran-3(2H)-one], for which the IC50 was at most 10 nM.

With `COc1ccc(C2=C(c3ccc(OCc4ccc(C)cn4)cc3)C(=O)C(C)(C)O2)cc1` [5-(4-methoxyphenyl)-2,2-dimethyl-4-(4-((5-methylpyridin-2-yl)methoxy)phenyl)furan-3(2H)-one], the IC50 is at most 10 nM.

On to `COc1ccc(C2=C(c3ccc(OCc4cn5cc(Cl)ccc5n4)cc3)C(=O)C(C)(C)O2)cc1` [4-(4-((6-Chloroimidazo[1,2-a]pyridin-2-yl)methoxy)phenyl)-5-(4-methoxyphenyl)-2,2-dimethylfuran-3(2H)-one], for which the IC50 was at most 10 nM.

As for `CC1(C)OC(c2ccc(C#N)cc2)=C(c2ccc(OCc3cn4ccccc4n3)cc2)C1=O` [4-(3-(4-(imidazo[1,2-a]pyridin-2-ylmethoxy)phenyl)-5,5-dimethyl-4-oxo-4,5-dihydrofuran-2-yl)benzonitrile], the IC50 was at most 10 nM.

Test system in the next assay: not given
Assay: not given
Conditions: rats; cited from earlier work.
With `COc1ccc(Cc2nccc3cc(OC)c(OC)cc23)cc1OC` [papaverine], the apomorphine induced stereotypes result is recorded as “reduces”, the haloperidol induced catalepsy result is reported as “increases” and the “rat brain dopamine levels” value is “reduces”.
